According to PubChem BioAssay (NCI):
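All cell lines were grown in 96-well plates and treated with compound for 48 hours. At the GI50, growth is halved. The concentration for full growth arrest is given as TGI.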

Experiments:
Test in all cases: NCI anticancer screen, dose series, 48 h
CAKI-1 renal = tested on: CAKI-1 renal
M14 melanoma = tested on: M14 melanoma
SW-620 colon = tested on: SW-620 colon
A498 renal = tested on: A498 renal
ACHN renal = tested on: ACHN renal
RPMI-8226 leukemia = tested on: RPMI-8226 leukemia
MOLT-4 leukemia = tested on: MOLT-4 leukemia
BT-549 breast = tested on: BT-549 breast
SNB-75 CNS = tested on: SNB-75 CNS
UACC-62 melanoma = tested on: UACC-62 melanoma
OVCAR-8 ovarian = tested on: OVCAR-8 ovarian
NCI-H522 lung = tested on: NCI-H522 lung
MDA-MB-435 = tested on: MDA-MB-435
HOP-92 NSCLC = tested on: HOP-92 NSCLC
A549 NSCLC = tested on: A549 NSCLC
SK-MEL-28 melanoma = tested on: SK-MEL-28 melanoma
HS 578T breast = tested on: HS 578T breast
OVCAR-5 ovarian = tested on: OVCAR-5 ovarian
MALME-3M melanoma = tested on: MALME-3M melanoma
HT29 colon = tested on: HT29 colon
SF-295 CNS = tested on: SF-295 CNS
KM12 colon = tested on: KM12 colon
NCI-H460 lung = tested on: NCI-H460 lung
PC-3 prostate = tested on: PC-3 prostate
SK-MEL-5 melanoma = tested on: SK-MEL-5 melanoma
UO-31 renal = tested on: UO-31 renal
NCI/ADR-RES ovarian = tested on: NCI/ADR-RES ovarian
786-0 renal = tested on: 786-0 renal
MDA-MB-231 breast = tested on: MDA-MB-231 breast
SF-539 CNS = tested on: SF-539 CNS
IGROV1 ovarian = tested on: IGROV1 ovarian
RXF 393 renal = tested on: RXF 393 renal
NCI-H226 lung = tested on: NCI-H226 lung
T-47D breast = tested on: T-47D breast
SK-MEL-2 melanoma = tested on: SK-MEL-2 melanoma
MCF7 breast = tested on: MCF7 breast
SF-268 CNS = tested on: SF-268 CNS
HOP-62 NSCLC = tested on: HOP-62 NSCLC
HL-60(TB) leukemia = tested on: HL-60(TB) leukemia
UACC-257 melanoma = tested on: UACC-257 melanoma
DU-145 prostate = tested on: DU-145 prostate
SK-OV-3 ovarian = tested on: SK-OV-3 ovarian
TK-10 renal = tested on: TK-10 renal
OVCAR-4 ovarian = tested on: OVCAR-4 ovarian
HCT-116 colon = tested on: HCT-116 colon
EKVX NSCLC = tested on: EKVX NSCLC
HCC-2998 colon = tested on: HCC-2998 colon
SNB-19 CNS = tested on: SNB-19 CNS
U251 CNS = tested on: U251 CNS
LOX IMVI melanoma = tested on: LOX IMVI melanoma
SR leukemia = tested on: SR leukemia
K-562 leukemia = tested on: K-562 leukemia
COLO 205 colon = tested on: COLO 205 colon
SN12C renal = tested on: SN12C renal

COc1cc(NC2=C(Cl)C(=O)c3nc(C)ccc3C2=O)cc(OC)c1
GI50 (CAKI-1 renal): 1760 nM
TGI (CAKI-1 renal): 3150 nM
GI50 (M14 melanoma): 1690 nM
TGI (M14 melanoma): 3090 nM
GI50 (SW-620 colon): 1760 nM
TGI (SW-620 colon): 3470 nM
GI50 (A498 renal): 2350 nM
TGI (A498 renal): 11400 nM
GI50 (ACHN renal): 1670 nM
TGI (ACHN renal): 3040 nM
GI50 (RPMI-8226 leukemia): 1790 nM
TGI (RPMI-8226 leukemia): 5190 nM
GI50 (MOLT-4 leukemia): 1500 nM
TGI (MOLT-4 leukemia): 7000 nM
GI50 (BT-549 breast): 1970 nM
TGI (BT-549 breast): 3400 nM
GI50 (SNB-75 CNS): 1940 nM
TGI (SNB-75 CNS): 5370 nM
GI50 (UACC-62 melanoma): 1770 nM
TGI (UACC-62 melanoma): 3420 nM
GI50 (OVCAR-8 ovarian): 1640 nM
TGI (OVCAR-8 ovarian): 3280 nM
GI50 (NCI-H522 lung): 1560 nM
TGI (NCI-H522 lung): 3060 nM
GI50 (MDA-MB-435): 1720 nM
TGI (MDA-MB-435): 3570 nM
GI50 (HOP-92 NSCLC): 1730 nM
TGI (HOP-92 NSCLC): 3170 nM
GI50 (A549 NSCLC): 2830 nM
TGI (A549 NSCLC): 8970 nM
GI50 (SK-MEL-28 melanoma): 1790 nM
TGI (SK-MEL-28 melanoma): 3230 nM
GI50 (HS 578T breast): 2430 nM
TGI (HS 578T breast): 5780 nM
GI50 (OVCAR-5 ovarian): 2380 nM
TGI (OVCAR-5 ovarian): 5790 nM
GI50 (MALME-3M melanoma): 1760 nM
TGI (MALME-3M melanoma): 3280 nM
GI50 (HT29 colon): 1870 nM
TGI (HT29 colon): 3480 nM
GI50 (SF-295 CNS): 1990 nM
TGI (SF-295 CNS): 5410 nM
GI50 (KM12 colon): 13000 nM
TGI (KM12 colon): 26600 nM
GI50 (NCI-H460 lung): 2680 nM
TGI (NCI-H460 lung): 8070 nM
GI50 (PC-3 prostate): 2560 nM
TGI (PC-3 prostate): 10400 nM
GI50 (SK-MEL-5 melanoma): 1620 nM
TGI (SK-MEL-5 melanoma): 2970 nM
GI50 (UO-31 renal): 1690 nM
TGI (UO-31 renal): 3060 nM
GI50 (NCI/ADR-RES ovarian): 1810 nM
TGI (NCI/ADR-RES ovarian): 4470 nM
GI50 (786-0 renal): 1520 nM
TGI (786-0 renal): 2880 nM
GI50 (MDA-MB-231 breast): 1460 nM
TGI (MDA-MB-231 breast): 3080 nM
GI50 (SF-539 CNS): 1790 nM
TGI (SF-539 CNS): 3220 nM
GI50 (IGROV1 ovarian): 1730 nM
TGI (IGROV1 ovarian): 3550 nM
GI50 (RXF 393 renal): 1630 nM
TGI (RXF 393 renal): 2990 nM
GI50 (NCI-H226 lung): 2820 nM
TGI (NCI-H226 lung): 8350 nM
GI50 (T-47D breast): 1500 nM
TGI (T-47D breast): 3620 nM
GI50 (SK-MEL-2 melanoma): 1590 nM
TGI (SK-MEL-2 melanoma): 3100 nM
GI50 (MCF7 breast): 1820 nM
TGI (MCF7 breast): 5330 nM
GI50 (SF-268 CNS): 3250 nM
TGI (SF-268 CNS): 14400 nM
GI50 (HOP-62 NSCLC): 4260 nM
TGI (HOP-62 NSCLC): 14100 nM
GI50 (HL-60(TB) leukemia): 1380 nM
TGI (HL-60(TB) leukemia): 4650 nM
GI50 (UACC-257 melanoma): 1510 nM
TGI (UACC-257 melanoma): 2850 nM
GI50 (DU-145 prostate): 1840 nM
TGI (DU-145 prostate): 3550 nM
GI50 (SK-OV-3 ovarian): 12600 nM
TGI (SK-OV-3 ovarian): 25100 nM
GI50 (TK-10 renal): 2320 nM
TGI (TK-10 renal): 3780 nM
GI50 (OVCAR-4 ovarian): 1400 nM
TGI (OVCAR-4 ovarian): 2820 nM
GI50 (HCT-116 colon): 1530 nM
TGI (HCT-116 colon): 2880 nM
GI50 (EKVX NSCLC): 1600 nM
TGI (EKVX NSCLC): 3120 nM
GI50 (HCC-2998 colon): 1810 nM
TGI (HCC-2998 colon): 3260 nM
GI50 (SNB-19 CNS): 5820 nM
TGI (SNB-19 CNS): 18800 nM
GI50 (U251 CNS): 1920 nM
TGI (U251 CNS): 4440 nM
GI50 (LOX IMVI melanoma): 1100 nM
TGI (LOX IMVI melanoma): 2320 nM
GI50 (SR leukemia): 350 nM
TGI (SR leukemia): 2430 nM
GI50 (K-562 leukemia): 381 nM
TGI (K-562 leukemia): > 100000 nM
GI50 (COLO 205 colon): 1680 nM
TGI (COLO 205 colon): 3080 nM
GI50 (SN12C renal): 1710 nM
TGI (SN12C renal): 3250 nM
